Data taken from patent US9549917B2, “Heterocyclic-substituted benzofuran derivatives and methods of use thereof for the treatment of viral diseases” (priority 2011, dated 2017).

How the values were obtained:
HCV replicon genotype 1a = assay: HCV replicon assay, genotype 1a (cell ELISA for NS3/4A); format: cell-based; settings: Hepatitis C virus, 96 h, read-out: 1a IC50 (nM)
Method: (§1) Measurement of inhibition by compounds was performed using the HCV replicon system. Several different replicons encoding different HCV genotypes or mutations were used. In addition, potency measurements were made using different formats of the replicon assay, including different ways of measurements and different plating formats. See Jan M. Vrolijk et al., A replicons-based bioassay for the measurement of interferons in patients with chronic hepatitis C, 110 J. V[…] 201 (2003); Steven S. Carroll et al., Inhibition of Hepatitis C Virus RNA Replication by 2′-Modified Nucleoside Analogs, 278(14) J. BIOLOGICAL CHEMISTRY 11979 (2003). However, the underlying principles are common to all of these determinations, and are outlined below.
(§2) Stable neomycin phosphotransferase encoding replicons-harboring cell lines were used, so all cell lines were maintained under G418 selection prior to the assay. Potency was determined using a cell ELISA assay with an antibody to the replicons encoded NS3/4a protease. See Caterina Trozzi et al., In Vitro Selection and Characterization of Hepatitis C Virus Serine Protease Variants Resistant to an Active-Site Peptide Inhibitor, 77(6) J. Virol. 3669 (2003). To initiate an assay, replicon cells were plated in the presence of a dilution series of test compound in the absence of G418. Typically, the assays were performed in a 96-well plate formate for manual operation, or a 384-well plate format for automated assay. Replicon cells and compound were incubated for 96 hours. At the end of the assay, cells were washed free of media and compound, and the cells were then lysed. RNA was quantified indirectly through detection of replicon-encoded NS3/4A protein levels, through an ELISA-based assay with an antibody specific for NS3/4A. IC50 determinations were calculated as a percentage of a DMSO control by fitting the data to a four-parameter fit function and the data obtained is provided in the table below.
(§3) Data for selected compounds of the present invention was obtained for genotypes 1a and 1b using this method and is provided in the table below: […]

HCV replicon genotype 1b = assay: HCV replicon assay, genotype 1b (cell ELISA for NS3/4A); format: cell-based; settings: Hepatitis C virus, 96 h, read-out: 1b IC50 (nM)
Method: as §1, §2, §3

**Q.** `CNC(=O)c1c(-c2ccc(F)cc2)oc2cc(N3CCCC3=O)c(-c3cncc(-c4nc5c(s4)CCCC5(F)F)c3)cc12` [Compound 155, 5-(5-(4,4-difluoro-4,5,6,7-tetrahydrobenzo[d]thiazol-2-yl)pyridin-3-yl)-2-(4-fluorophenyl)-N-methyl-6-(2-oxopyrrolidin-1-yl)benzofuran-3-carboxamide] was tested. Which IC50 (HCV replicon genotype 1a) did it give?
**A.** 2.9 nM

**Q.** What about the IC50 (HCV replicon genotype 1b) of the same compound?
**A.** 1 nM

**Q.** How did the IC50 (HCV replicon genotype 1a) turn out when `CNC(=O)c1c(-c2ccc(F)cc2)oc2cc(N(C)S(C)(=O)=O)c(-c3ncc(OC)c(-c4cc5c(C#N)cccc5[nH]4)n3)cc12` [Compound 214] was run?
**A.** 33 nM

**Q.** And the IC50 (HCV replicon genotype 1b)?
**A.** 9.9 nM

**Q.** How did the IC50 (HCV replicon genotype 1a) turn out when `CNC(=O)c1c(-c2ccc(F)cc2)oc2cc(N(C)S(C)(=O)=O)c(-c3cc(-c4cc5c(F)cccc5[nH]4)ncc3OC)cc12` [Compound 293] was run?
**A.** 131 nM

**Q.** And the IC50 (HCV replicon genotype 1b)?
**A.** 41 nM

**Q.** For `CNC(=O)c1c(-c2ccc(F)cc2)oc2cc(N(C)S(C)(=O)=O)c(-c3ccc(O)c(C4Cc5c(F)cccc5N4)n3)cc12` (stereo not shown) [Compound 257, 5-(6-(4-fluoroindolin-2-yl)-5-hydroxypyridin-2-yl)-2-(4-fluorophenyl)-N-methyl-6-(N-methylmethylsulfonamido)benzofuran-3-carboxamide], which IC50 (HCV replicon genotype 1a) is on record?
**A.** 13 nM

**Q.** And the IC50 (HCV replicon genotype 1b)?
**A.** 10 nM

**Q.** What does the source list for `CNC(=O)c1c(-c2ccc(F)cc2)oc2cc(N(C)S(C)(=O)=O)c(-c3cnnc(-c4cc5c(F)cccc5[nH]4)c3)cc12` [Compound 259]?
**A.** IC50 (HCV replicon genotype 1a): 1.1 nM; IC50 (HCV replicon genotype 1b): 2.6 nM

**Q.** Which IC50 (HCV replicon genotype 1a) does the source give for `CNC(=O)c1c(-c2ccc(F)cc2)oc2cc(N(C)S(C)(=O)=O)c(-c3cnnc(-c4cc5c(OC)cccc5[nH]4)c3)cc12` [Compound 282] here?
**A.** 3.3 nM

**Q.** What about the IC50 (HCV replicon genotype 1b) of the same compound?
**A.** 1.8 nM

**Q.** What does the source list for `CNC(=O)c1c(-c2ccc(F)cc2)oc2cc(N(C)S(C)(=O)=O)c(-c3ccc(O)c(-c4cc5c(C#N)nccc5[nH]4)n3)cc12` [Compound 231]?
**A.** IC50 (HCV replicon genotype 1a): 339 nM; IC50 (HCV replicon genotype 1b): 47 nM

**Q.** With `CNC(=O)c1c(-c2ccc(F)cc2)oc2cc(N(C)S(C)(=O)=O)c(-c3cnc(OC)c(-c4cc5c(C#N)cccc5[nH]4)n3)cc12` [Compound 225] as the compound, how does the IC50 (HCV replicon genotype 1a) read?
**A.** 4.7 nM

**Q.** What about the IC50 (HCV replicon genotype 1b) of the same compound?
**A.** 7 nM

**Q.** Which IC50 (HCV replicon genotype 1a) does the source give for `CNC(=O)c1c(-c2ccc(F)cc2)oc2cc(N(C)S(C)(=O)=O)c(-c3cc(-c4cc5c(F)cccc5[nH]4)nnc3OC)cc12` [Compound 223] here?
**A.** 2.8 nM

**Q.** What about the IC50 (HCV replicon genotype 1b) of the same compound?
**A.** 4.5 nM

**Q.** With `CNC(=O)c1c(-c2ccc(F)cc2)oc2cc(N(C)S(C)(=O)=O)c(-c3cnc(OC)c(-c4nc5c(F)cccc5o4)c3)cc12` [Compound 1, 5-(5-(4-fluorobenzo[d]oxazol-2-yl)-6-methoxypyridin-3-yl)-2-(4-fluorophenyl)-N-methyl-6-(N-methylmethylsulfonamido)benzofuran-3-carboxamide] as the compound, how does the IC50 (HCV replicon genotype 1a) read?
**A.** 0.9 nM

**Q.** And the IC50 (HCV replicon genotype 1b)?
**A.** 0.6 nM

**Q.** How did the IC50 (HCV replicon genotype 1a) turn out when `CNC(=O)c1c(-c2ccc(F)cc2)oc2cc(N(C)S(C)(=O)=O)c(-c3cc(-c4nc5ccccc5o4)cnn3)cc12` [Compound 271] was run?
**A.** 14 nM

**Q.** And the IC50 (HCV replicon genotype 1b)?
**A.** 10 nM

**Q.** Which IC50 (HCV replicon genotype 1a) does the source give for `CNC(=O)c1c(-c2ccc(F)cc2)oc2cc(N(C)S(C)(=O)=O)c(-c3cc(-c4[nH]c5ccccc5c4C)cnn3)cc12` [Compound 289] here?
**A.** 54 nM

**Q.** And the IC50 (HCV replicon genotype 1b)?
**A.** 22 nM

**Q.** How did the IC50 (HCV replicon genotype 1a) turn out when `CNC(=O)c1c(-c2ccc(F)cc2)oc2cc(N(C)S(C)(=O)=O)c(-c3cnnc(N4Cc5cccc(F)c5C4)c3)cc12` [Compound 280] was run?
**A.** 1.2 nM

**Q.** What about the IC50 (HCV replicon genotype 1b) of the same compound?
**A.** 1.4 nM

**Q.** `CNC(=O)c1c(-c2ccc(F)cc2)oc2cc(N(C)S(C)(=O)=O)c(-c3cc(-c4cc5c(F)cccc5[nH]4)nnc3C)cc12` [Compound 268] was tested. Which IC50 (HCV replicon genotype 1a) did it give?
**A.** 5.3 nM

**Q.** And the IC50 (HCV replicon genotype 1b)?
**A.** 6.1 nM

**Q.** Which results are given for `CNC(=O)c1c(-c2ccc(F)cc2)oc2cc(N(C)S(C)(=O)=O)c(-c3cc(-c4nc5c(o4)CCCC5(F)F)ccn3)cc12` [Compound 95]?
**A.** IC50 (HCV replicon genotype 1a): 0.9 nM; IC50 (HCV replicon genotype 1b): 1.1 nM

**Q.** With `CNC(=O)c1c(-c2ccc(F)cc2)oc2cc(N(C)S(C)(=O)=O)c(-c3ccc(O)c(-c4cc5ccccn5n4)n3)cc12` [Compound 255] as the compound, how does the IC50 (HCV replicon genotype 1a) read?
**A.** 1450 nM

**Q.** What about the IC50 (HCV replicon genotype 1b) of the same compound?
**A.** 104 nM

**Q.** What does the source list for `CNC(=O)c1c(-c2ccc(F)cc2)oc2cc(N(C)S(C)(=O)=O)c(-c3cc(N4Cc5cccc(F)c5C4)ncc3Cl)cc12` [Compound 291]?
**A.** IC50 (HCV replicon genotype 1a): 4.8 nM; IC50 (HCV replicon genotype 1b): 8 nM
